Source: US20240124442A1, “TRICYCLIC-AMIDO-BICYCLIC PRMT5 INHIBITORS” (AMGEN INC., priority 2021, published 2024)

Columns and labels:
HCT116 MTAP null cells = experiment: HCT116 MTAP null cell line proliferation / cell viability (CellTiter-Glo, 6 days); type: cell-based; conditions: 144 h; HCT116 MTAP null cells, 6 days treatment, CellTiter-Glo cell viability; read-out: HCT-116 MTAP null IC50
How it was run: (§1)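 CellTiter-Glo luminescence read after 6 days of compound exposure in parental and MTAP-null HCT116 cells grown in RPMI 1640/10% FBS. Dilution series: 1:3 steps, 8–9 points, top 1 or 10 μM; or 1:2 steps, 22 points, top 10 or 50 μM. IC50 = curve transit through 50% of control.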

HCT116 WT cells = experiment: HCT116 WT (parent) cell line proliferation / cell viability (CellTiter-Glo, 6 days); type: cell-based; conditions: Homo sapiens, HCT-116, 144 h, 6 days treatment
How it was run: as §1

Row | Compound | IC50 (HCT116 MTAP null cells) | IC50 (HCT116 WT cells)
1 | CN(C(=O)c1ccc2nc(N)c3cnn(C)c3c2c1)[C@@H]1COc2cc(-c3ccncc3)ccc21 [Example 627, 4-amino-N,1-dimethyl-N-((3S)-6-(4-pyridinyl)-2,3-dihydro-1-benzofuran-3-yl)-1H-pyrazolo[4,3-c]quinoline-8-carboxamide] | 4 nM | 136 nM
2 | CN(C(=O)c1ccc2nc(N)c3cnn(C)c3c2c1)[C@@H]1COc2cc(-c3cccnc3)ccc21 [Example 628, 4-amino-N,1-dimethyl-N-((3S)-6-(3-pyridinyl)-2,3-dihydro-1-benzofuran-3-yl)-1H-pyrazolo[4,3-c]quinoline-8-carboxamide] | 5 nM | 511 nM
3 | CN(C(=O)c1ccc2nc(N)c3cnn(C)c3c2c1)[C@@H]1COc2cc(-c3cnn(C)c3)ccc21 [Example 629, 4-amino-N,1-dimethyl-N-((3S)-6-(1-methyl-1H-pyrazol-4-yl)-2,3-dihydro-1-benzofuran-3-yl)-1H-pyrazolo[4,3-c]quinoline-8-carboxamide] | 4 nM | 691 nM
4 | CN(C(=O)c1ccc2nc(N)c3cnn(C)c3c2c1)[C@@H]1COc2cc(-c3ccnn3C)ccc21 [Example 630, 4-amino-N,1-dimethyl-N-((3S)-6-(1-methyl-1H-pyrazol-5-yl)-2,3-dihydro-1-benzofuran-3-yl)-1H-pyrazolo[4,3-c]quinoline-8-carboxamide] | 3 nM | 222 nM
5 | CN(C(=O)c1ccc2nc(N)c3cnn(C)c3c2c1)[C@@H]1COc2cc(-c3ccn(C)n3)ccc21 [Example 631, 4-amino-N,1-dimethyl-N-((3S)-6-(1-methyl-1H-pyrazol-3-yl)-2,3-dihydro-1-benzofuran-3-yl)-1H-pyrazolo[4,3-c]quinoline-8-carboxamide] | 23 nM | 2530 nM
6 | Cc1cc(-c2ccc3c(c2)OC[C@H]3N(C)C(=O)c2ccc3nc(N)c4cnn(C)c4c3c2)co1 [Example 632, 4-amino-N,1-dimethyl-N-((3S)-6-(5-methyl-3-furanyl)-2,3-dihydro-1-benzofuran-3-yl)-1H-pyrazolo[4,3-c]quinoline-8-carboxamide] | 26 nM | 841 nM
7 | Cc1cc(-c2ccc3c(c2)OC[C@H]3N(C)C(=O)c2ccc3nc(N)c4cnn(C)c4c3c2)on1 [Example 633, 4-amino-N,1-dimethyl-N-((3S)-6-(3-methyl-1,2-oxazol-5-yl)-2,3-dihydro-1-benzofuran-3-yl)-1H-pyrazolo[4,3-c]quinoline-8-carboxamide] | 8 nM | 672 nM
8 | CN(C(=O)c1ccc2nc(N)c3cnn(C)c3c2c1)[C@@H]1COc2cc(C3=CCCOC3)ccc21 [Example 634, 4-amino-N-((3S)-6-(5,6-dihydro-2H-pyran-3-yl)-2,3-dihydro-1-benzofuran-3-yl)-N,1-dimethyl-1H-pyrazolo[4,3-c]quinoline-8-carboxamide] | 8 nM | 524 nM
9 | CN(C(=O)c1ccc2nc(N)c3cnn(C)c3c2c1)[C@@H]1COc2cc(-c3cscn3)ccc21 [Example 635, 4-amino-N,1-dimethyl-N-((3S)-6-(1,3-thiazol-4-yl)-2,3-dihydro-1-benzofuran-3-yl)-1H-pyrazolo[4,3-c]quinoline-8-carboxamide] | 9 nM | 613 nM
10 | Cc1ncc(-c2ccc3c(c2)OC[C@H]3N(C)C(=O)c2ccc3nc(N)c4cnn(C)c4c3c2)cn1 [Example 636, 4-amino-N,1-dimethyl-N-((3S)-6-(2-methyl-5-pyrimidinyl)-2,3-dihydro-1-benzofuran-3-yl)-1H-pyrazolo[4,3-c]quinoline-8-carboxamide] | 13 nM | 1950 nM
11 | CN(C(=O)c1ccc2nc(N)c3cnn(C)c3c2c1)[C@@H]1COc2cc(-c3cnc(=O)[nH]c3)ccc21 [Example 637, 4-amino-N,1-dimethyl-N-((3S)-6-(2-oxo-1,2-dihydro-5-pyrimidinyl)-2,3-dihydro-1-benzofuran-3-yl)-1H-pyrazolo[4,3-c]quinoline-8-carboxamide] | 339 nM | 32100 nM
12 | CN(C(=O)c1ccc2nc(N)c3cnn(C)c3c2c1)[C@@H]1COc2cc(-c3ccc(F)nc3)ccc21 [Example 638, 4-amino-N-((3S)-6-(6-fluoro-3-pyridinyl)-2,3-dihydro-1-benzofuran-3-yl)-N,1-dimethyl-1H-pyrazolo[4,3-c]quinoline-8-carboxamide] | 6 nM | 591 nM
13 | CCn1cc(-c2ccc3c(c2)OC[C@H]3N(C)C(=O)c2ccc3nc(N)c4cnn(C)c4c3c2)cn1 [Example 639, 4-amino-N-((3S)-6-(1-ethyl-1H-pyrazol-4-yl)-2,3-dihydro-1-benzofuran-3-yl)-N,1-dimethyl-1H-pyrazolo[4,3-c]quinoline-8-carboxamide] | 15 nM | 1400 nM
14 | CN(C(=O)c1ccc2nc(N)c3cnn(C)c3c2c1)[C@@H]1COc2cc(-c3cnn(C4CC4)c3)ccc21 [Example 640, 4-amino-N-((3S)-6-(1-cyclopropyl-1H-pyrazol-4-yl)-2,3-dihydro-1-benzofuran-3-yl)-N,1-dimethyl-1H-pyrazolo[4,3-c]quinoline-8-carboxamide] | 16 nM | 2050 nM
15 | CN(C(=O)c1ccc2nc(N)c3cnn(C)c3c2c1)[C@@H]1COc2cc(-c3cc(F)cc(F)c3)ccc21 [Example 641, 4-amino-N-((3S)-6-(3,5-difluorophenyl)-2,3-dihydro-1-benzofuran-3-yl)-N,1-dimethyl-1H-pyrazolo[4,3-c]quinoline-8-carboxamide] | 42 nM | 1600 nM
16 | CN(C(=O)c1ccc2nc(N)c3cnn(C)c3c2c1)[C@@H]1COc2cc(-c3ccc(F)nc3F)ccc21 [Example 642, 4-amino-N-((3S)-6-(2,6-difluoro-3-pyridinyl)-2,3-dihydro-1-benzofuran-3-yl)-N,1-dimethyl-1H-pyrazolo[4,3-c]quinoline-8-carboxamide] | 5 nM | 535 nM
17 | CN(C(=O)c1ccc2nc(N)c3cnn(C)c3c2c1)[C@@H]1COc2cc(-c3ccnc(F)c3F)ccc21 [Example 643, 4-amino-N-((3S)-6-(2,3-difluoro-4-pyridinyl)-2,3-dihydro-1-benzofuran-3-yl)-N,1-dimethyl-1H-pyrazolo[4,3-c]quinoline-8-carboxamide] | 5 nM | 228 nM
18 | CN(C(=O)c1ccc2nc(N)c3cnn(C)c3c2c1)[C@@H]1COc2cc(-c3cnc4c(c3)CC(=O)N4)ccc21 [Example 644, 4-amino-N,1-dimethyl-N-((3S)-6-(2-oxo-2,3-dihydro-1H-pyrrolo[2,3-b]pyridin-5-yl)-2,3-dihydro-1-benzofuran-3-yl)-1H-pyrazolo[4,3-c]quinoline-8-carboxamide] | 27 nM | 3560 nM
19 | CN(C(=O)c1ccc2nc(N)c3cnn(C)c3c2c1)[C@@H]1COc2cc(-c3cc(C(F)(F)F)[nH]n3)ccc21 [Example 645, 4-amino-N,1-dimethyl-N-((3S)-6-(5-(trifluoromethyl)-1H-pyrazol-3-yl)-2,3-dihydro-1-benzofuran-3-yl)-1H-pyrazolo[4,3-c]quinoline-8-carboxamide] | 24 nM | 1470 nM
20 | CNC(=O)c1ccc(-c2ccc3c(c2)OC[C@H]3N(C)C(=O)c2ccc3nc(N)c4cnn(C)c4c3c2)cn1 [Example 646, 4-amino-N,1-dimethyl-N-((3S)-6-(6-(methylcarbamoyl)-3-pyridinyl)-2,3-dihydro-1-benzofuran-3-yl)-1H-pyrazolo[4,3-c]quinoline-8-carboxamide] | 3 nM | 329 nM
